Results: ChEMBL document CHEMBL5550160, “Leveraging a rationally designed veliparib-based anilide eliciting anti-leukemic effects for the design of pH-responsive polymer nanoformulation” (Eur J Med Chem, 2024)
Active and inactive are the calls of the source. The calls are words filed in the database; no cut-off is given here.

Legend:
[1] = target: Histone deacetylase 5 (Homo sapiens) (UniProt Q9UQL6); assay: Inhibition of HDAC5 (unknown origin) assessed as residual activity at 1.23 x 10^-7M (reference value: 100%); settings: dose 1.23 10^-7M
Sequence of Histone deacetylase 5 (Homo sapiens) (Q9UQL6 whole entry): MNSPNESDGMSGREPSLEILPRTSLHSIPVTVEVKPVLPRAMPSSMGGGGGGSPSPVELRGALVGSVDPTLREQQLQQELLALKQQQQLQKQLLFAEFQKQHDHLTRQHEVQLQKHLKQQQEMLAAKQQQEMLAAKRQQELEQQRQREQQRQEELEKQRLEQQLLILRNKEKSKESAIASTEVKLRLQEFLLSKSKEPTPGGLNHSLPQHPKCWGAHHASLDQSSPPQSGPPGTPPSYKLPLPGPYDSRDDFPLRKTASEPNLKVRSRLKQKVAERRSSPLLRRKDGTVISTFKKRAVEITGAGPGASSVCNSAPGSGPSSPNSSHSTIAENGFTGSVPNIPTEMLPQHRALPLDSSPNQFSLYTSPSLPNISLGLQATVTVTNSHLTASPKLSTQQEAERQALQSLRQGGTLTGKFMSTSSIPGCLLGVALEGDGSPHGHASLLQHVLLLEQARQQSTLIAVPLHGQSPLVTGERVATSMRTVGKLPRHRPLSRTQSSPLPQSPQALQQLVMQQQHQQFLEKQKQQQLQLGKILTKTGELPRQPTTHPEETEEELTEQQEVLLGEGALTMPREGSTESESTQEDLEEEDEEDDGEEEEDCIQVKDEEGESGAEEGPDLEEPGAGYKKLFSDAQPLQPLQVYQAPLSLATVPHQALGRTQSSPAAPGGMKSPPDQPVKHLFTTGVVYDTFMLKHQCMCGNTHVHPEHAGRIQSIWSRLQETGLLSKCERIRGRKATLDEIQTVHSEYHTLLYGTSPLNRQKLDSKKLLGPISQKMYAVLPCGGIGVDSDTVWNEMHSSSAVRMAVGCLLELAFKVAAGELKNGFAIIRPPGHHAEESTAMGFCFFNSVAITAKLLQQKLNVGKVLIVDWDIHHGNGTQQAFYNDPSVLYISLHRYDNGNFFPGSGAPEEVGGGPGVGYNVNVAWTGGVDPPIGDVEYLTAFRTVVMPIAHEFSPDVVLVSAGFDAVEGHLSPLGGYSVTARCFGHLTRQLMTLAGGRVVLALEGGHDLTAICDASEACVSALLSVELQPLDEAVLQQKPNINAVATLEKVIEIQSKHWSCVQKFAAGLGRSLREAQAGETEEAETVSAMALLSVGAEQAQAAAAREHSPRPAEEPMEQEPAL

[2] = target: T1, Histone deacetylase 7 (Homo sapiens) (UniProt Q8WUI4); assay: Inhibition of HDAC7 (unknown origin) assessed as residual activity at 1.23 x 10^-7M (reference value: 102.66%); settings: dose 1.23 10^-7M
T1 sequence (whole entry): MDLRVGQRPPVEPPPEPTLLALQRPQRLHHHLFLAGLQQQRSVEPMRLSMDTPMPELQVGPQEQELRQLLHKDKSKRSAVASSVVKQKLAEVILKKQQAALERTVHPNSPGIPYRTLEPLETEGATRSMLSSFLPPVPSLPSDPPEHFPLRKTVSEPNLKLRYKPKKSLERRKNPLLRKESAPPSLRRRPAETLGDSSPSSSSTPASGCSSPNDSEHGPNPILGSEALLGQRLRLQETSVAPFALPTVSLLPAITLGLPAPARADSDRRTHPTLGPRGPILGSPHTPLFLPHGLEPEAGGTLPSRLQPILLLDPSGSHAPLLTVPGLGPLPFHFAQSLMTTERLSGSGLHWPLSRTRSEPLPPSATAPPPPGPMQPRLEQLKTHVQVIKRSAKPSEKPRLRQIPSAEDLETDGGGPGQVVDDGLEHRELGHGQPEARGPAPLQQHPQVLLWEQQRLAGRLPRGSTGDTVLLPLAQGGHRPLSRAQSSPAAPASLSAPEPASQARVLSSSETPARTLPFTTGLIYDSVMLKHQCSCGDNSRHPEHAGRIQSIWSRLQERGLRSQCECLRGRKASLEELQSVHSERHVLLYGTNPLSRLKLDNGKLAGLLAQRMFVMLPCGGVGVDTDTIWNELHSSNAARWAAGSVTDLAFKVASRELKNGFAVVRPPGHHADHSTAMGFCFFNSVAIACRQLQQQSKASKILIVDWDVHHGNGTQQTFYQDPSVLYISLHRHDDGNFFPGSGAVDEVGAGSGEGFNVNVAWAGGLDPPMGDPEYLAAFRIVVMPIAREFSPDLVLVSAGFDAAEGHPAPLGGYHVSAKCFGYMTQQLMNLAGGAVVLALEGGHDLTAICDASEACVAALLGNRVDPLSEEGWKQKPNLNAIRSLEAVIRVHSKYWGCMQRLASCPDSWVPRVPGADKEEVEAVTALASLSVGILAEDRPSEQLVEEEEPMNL

[3] = target: T2, Protein deacetylase HDAC6 (Homo sapiens) (UniProt Q9UBN7); assay: Inhibition of HDAC6 (unknown origin) using p53 residues 379 to 382 [RHKK(Ac)] as fluorogenic substrate assessed as residual activity at 1.52 x 10^-9M (reference value: 101.06%); settings: dose 1.52 10^-9M
T2 sequence (whole entry): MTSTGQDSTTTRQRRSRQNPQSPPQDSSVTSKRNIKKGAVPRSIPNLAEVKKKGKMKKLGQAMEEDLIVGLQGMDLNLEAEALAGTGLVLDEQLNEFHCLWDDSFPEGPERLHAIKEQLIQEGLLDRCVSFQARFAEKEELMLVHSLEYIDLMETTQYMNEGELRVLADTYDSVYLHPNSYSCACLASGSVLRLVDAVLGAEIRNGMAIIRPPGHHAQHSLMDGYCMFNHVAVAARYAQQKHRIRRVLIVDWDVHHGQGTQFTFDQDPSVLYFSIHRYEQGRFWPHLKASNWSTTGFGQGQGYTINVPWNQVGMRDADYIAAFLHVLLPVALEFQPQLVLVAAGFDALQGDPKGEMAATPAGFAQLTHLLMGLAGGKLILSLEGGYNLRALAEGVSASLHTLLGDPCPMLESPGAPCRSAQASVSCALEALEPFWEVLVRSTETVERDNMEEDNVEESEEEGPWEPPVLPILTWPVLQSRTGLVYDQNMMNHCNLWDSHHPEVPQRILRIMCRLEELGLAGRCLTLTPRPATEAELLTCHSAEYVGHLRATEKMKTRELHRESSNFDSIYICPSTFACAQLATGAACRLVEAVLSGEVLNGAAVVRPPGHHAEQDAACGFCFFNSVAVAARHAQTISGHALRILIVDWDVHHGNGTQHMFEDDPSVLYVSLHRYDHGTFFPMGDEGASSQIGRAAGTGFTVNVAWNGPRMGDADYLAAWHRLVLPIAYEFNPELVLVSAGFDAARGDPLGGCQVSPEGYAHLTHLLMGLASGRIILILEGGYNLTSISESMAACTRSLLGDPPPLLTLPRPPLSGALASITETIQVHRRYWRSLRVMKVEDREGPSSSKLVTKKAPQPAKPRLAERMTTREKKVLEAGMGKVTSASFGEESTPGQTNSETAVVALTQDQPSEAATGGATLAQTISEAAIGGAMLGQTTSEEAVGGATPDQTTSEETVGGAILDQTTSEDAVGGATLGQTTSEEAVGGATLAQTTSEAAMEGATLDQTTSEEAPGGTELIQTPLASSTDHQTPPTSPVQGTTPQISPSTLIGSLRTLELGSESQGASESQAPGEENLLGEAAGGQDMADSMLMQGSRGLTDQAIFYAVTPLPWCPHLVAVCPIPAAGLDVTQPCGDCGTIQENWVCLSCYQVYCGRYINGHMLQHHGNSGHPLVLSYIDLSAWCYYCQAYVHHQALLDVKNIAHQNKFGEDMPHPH

Histone deacetylase 1 = Histone deacetylase 1 (Homo sapiens, UniProt Q13547); assay: Inhibition of HDAC1 (unknown origin) using p53 residues 379 to 382 [RHKK(Ac)] as fluorogenic substrate assessed as residual activity at 4.12 x 10^-8M (reference value: 98.06%); settings: dose 4.12 10^-8M
Sequence of Histone deacetylase 1 (Q13547 whole entry, the tested form may be a part): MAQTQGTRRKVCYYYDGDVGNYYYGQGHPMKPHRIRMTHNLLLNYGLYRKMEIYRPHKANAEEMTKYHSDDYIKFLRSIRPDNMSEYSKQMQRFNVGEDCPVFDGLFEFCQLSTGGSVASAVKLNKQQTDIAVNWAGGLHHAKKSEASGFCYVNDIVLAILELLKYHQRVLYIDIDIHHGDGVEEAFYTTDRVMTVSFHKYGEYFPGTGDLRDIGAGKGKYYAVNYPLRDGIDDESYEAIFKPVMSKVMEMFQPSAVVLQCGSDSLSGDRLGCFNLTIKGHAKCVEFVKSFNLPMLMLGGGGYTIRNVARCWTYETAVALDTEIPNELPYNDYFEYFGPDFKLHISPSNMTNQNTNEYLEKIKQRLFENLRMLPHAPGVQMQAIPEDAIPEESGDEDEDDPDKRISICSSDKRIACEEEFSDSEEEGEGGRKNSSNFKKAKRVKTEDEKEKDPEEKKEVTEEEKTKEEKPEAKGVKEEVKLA

[4] = target: T2, Protein deacetylase HDAC6 (Homo sapiens); assay: Inhibition of HDAC6 (unknown origin) using p53 residues 379 to 382 [RHKK(Ac)] as fluorogenic substrate assessed as residual activity at 3.33 x 10^-6M (reference value: 101.06%); settings: dose 3.33 10^-6M
HL-60 [5] = assay: Downregulation of HDAC1 protein expression in human HL-60 cells at 0.5 to 1 times IC50 by Western blot analysis; format: functional, cell-based
HL-60 [6] = assay: Induction of cell cycle arrest in human HL-60 cells assessed as accumulation of cells at sub-G1 phase at 0.5 to 1 times IC50 by PI staining based flow cytometry analysis; format: functional
[7] = target: T1, Histone deacetylase 7 (Homo sapiens); assay: Inhibition of HDAC7 (unknown origin) assessed as residual activity at 1.1 x 10^-6M (reference value: 102.66%); settings: dose 1.1 10^-6M
[8] = target: Histone deacetylase 5 (Homo sapiens) (UniProt Q9UQL6); assay: Inhibition of HDAC5 (unknown origin) assessed as residual activity at 1.37 x 10^-8M (reference value: 100%); settings: dose 1.37 10^-8M
Histone deacetylase 2 = Histone deacetylase 2 (Homo sapiens, UniProt Q92769); assay: Inhibition of HDAC2 (unknown origin) assessed as residual activity at 1.23 x 10^-7M (reference value: 99.81%); settings: dose 1.23 10^-7M
Sequence of Histone deacetylase 2 (Q92769 whole entry): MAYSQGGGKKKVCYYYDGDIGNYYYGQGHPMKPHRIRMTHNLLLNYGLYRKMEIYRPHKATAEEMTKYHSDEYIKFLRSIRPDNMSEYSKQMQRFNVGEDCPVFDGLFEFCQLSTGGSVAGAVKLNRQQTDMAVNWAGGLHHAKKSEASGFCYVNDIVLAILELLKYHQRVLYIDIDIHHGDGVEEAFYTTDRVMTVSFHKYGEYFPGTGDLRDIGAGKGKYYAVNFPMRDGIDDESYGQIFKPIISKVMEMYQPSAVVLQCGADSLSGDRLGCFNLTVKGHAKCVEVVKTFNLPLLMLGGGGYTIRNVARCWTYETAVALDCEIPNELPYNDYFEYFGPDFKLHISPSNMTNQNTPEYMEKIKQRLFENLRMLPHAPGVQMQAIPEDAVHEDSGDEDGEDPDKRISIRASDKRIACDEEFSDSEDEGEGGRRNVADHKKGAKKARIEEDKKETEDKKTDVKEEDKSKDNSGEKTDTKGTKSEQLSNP

## NC(=O)c1cccc2[nH]c(-c3ccc(NCc4ccc(C(=O)Nc5ccccc5N)cc4)cc3)nc12
[1]
  Activity: 89.6%
[2]
  Activity: 89.1%
[3]
  Activity: 96.7%
Histone deacetylase 1
  Activity: 51.3%
[4]
  Activity: 105%
HL-60 [5]
  Activity: Active
HL-60 [6]
  Activity: inactive
[7]
  Activity: 78.2%
[8]
  Activity: 84%
Histone deacetylase 2
  Activity: 56.5%
